From US9766247B2, “Rapid method to analyze ubiquitin-proteasome activity and to screen for ubiquitin-proteasome inhibitor” (KOREA INSTITUTE OF SCIENCE AND TECHNOLOGY, priority 2014, dated 2017) come the findings set out here.

The subject of this experiment is ubiquitin-proteasome. Kind of experiment: Quantification of GFP-RPN1 fusion protein accumulated by proteasome inhibitor (dual LIF CE system). It counts as cell-based, human. The note with it: HEK 293T cells transfected with EGFP-RPN1 and DsRed plasmid vectors; about 0 to about 20 μM inhibitor, two hours; GFP-RPN1 peak height by CE-dual LIF; FIGS. 5a to 5c. How it is done: To monitor a ubiquitin-proteasome-dependent protein RPN1 (ribophorin I), a plasmid vector enabling to express a fusion protein including a green fluorescent protein (GFP) and RPN1 was prepared. Specifically, to induce rapid lysis of a human RPN1 protein, a wild type RPN1 polynucleotide (SEQ ID NO: 2) encoding a wild type human RPN1 protein (SEQ ID NO: 1) was used to prepare a mutant RPN-I^N299T polynucleotide (SEQ ID NO: 4) encoding a mutant RPN-I^N299T protein (SEQ ID NO: 3). The mutant RPN-I^N299T polynucleotide (SEQ ID NO: 4) was cloned into a pEGFP-C1 plasmid vector (Clontech Laboratories Inc.) to prepare a pEGFP-RPN1^N299T plasmid which enables expression of a fusion protein including a GFP protein and the RPN1^N299T protein.
On the other hand, a plasmid vector expressing a red fluorescent protein (RFP) as a ubiquitin-proteasome-independent protein which is not lysed by a ubiquitin-proteasome was prepared. Specifically, a pDs-Red2-Express-N1 plasmid vector (Clontech Laboratories Inc.) which enables expression of a Discosoma species RFP (DsRed) was prepared.
As host cells, human embryonic kidney (HEK) 293T cells were cultured in a DMEM (Dulbecco's Modified Eagle's Medium) (Gibco/BRL) including 10% (v/v) fetal bovine serum (FBS) and 1% (v/v) penicillin-streptomycin (Gibco/BRL) at a temperature of 37° C. under the atmosphere of 5% CO2. During the culturing, the medium was replaced with new medium every second day. […]
Subsequently, the supernatant which was the cell lysate was obtained as described in Example 1.2. As described in Example 1.3, a capillary electrophoresis was performed with the obtained supernatant under the electrophoresis conditions of 100 mM Tris-CHES and 10 mM SDS (pH 9.0) by using a dual LIF CE system including an uncoated capillary having an inner diameter of 75 μm and a length of 50 cm to quantify the peak height. […]

SMILES strings stand for the structures. Residues, ends and D or L forms follow the SMILES beside them. *: point of attachment. Cbz = O=C(OCc1ccccc1)*

Consider `CC(C)C[C@@H](C=O)NC(=O)[C@H](CC(C)C)NC(=O)[C@H](CC(C)C)NC(=O)OCc1ccccc1` [MG132] (Cbz-Leu-Leu-Leu-aldehyde), for which the “amount of the accumulated proteins (relative intensity of the peaks)” value (“amount … (relative intensity of the peaks)” below) was “varied according to the increase of the concentrations”.

In the case of `CC(C)C[C@H](NC(=O)[C@H](Cc1ccccc1)NC(=O)c1cnccn1)B(O)O` [bortezomib], the “amount … (relative intensity of the peaks)” value is recorded as “varied according to the increase of the concentrations”.

As for `CC(C)C[C@H](NC(=O)[C@H](CCc1ccccc1)NC(=O)CN1CCOCC1)C(=O)N[C@@H](Cc1ccccc1)C(=O)N[C@@H](CC(C)C)C(=O)[C@@]1(C)CO1` [carfilzomib], the “amount … (relative intensity of the peaks)” value is “varied according to the increase of the concentrations”.
